{
  "source": "patent US11261174B2",
  "about": "“Pyrazole O-linked carbamoyl cyclohexyl acids as LPA antagonists” (BRISTOL-MYERS SQUIBB COMPANY, priority 2017, dated 2022)",
  "data": [
    {"molecular_target": "LPA1 (Homo sapiens, UniProt Q92633)", "sequence (Q92633 whole entry)": "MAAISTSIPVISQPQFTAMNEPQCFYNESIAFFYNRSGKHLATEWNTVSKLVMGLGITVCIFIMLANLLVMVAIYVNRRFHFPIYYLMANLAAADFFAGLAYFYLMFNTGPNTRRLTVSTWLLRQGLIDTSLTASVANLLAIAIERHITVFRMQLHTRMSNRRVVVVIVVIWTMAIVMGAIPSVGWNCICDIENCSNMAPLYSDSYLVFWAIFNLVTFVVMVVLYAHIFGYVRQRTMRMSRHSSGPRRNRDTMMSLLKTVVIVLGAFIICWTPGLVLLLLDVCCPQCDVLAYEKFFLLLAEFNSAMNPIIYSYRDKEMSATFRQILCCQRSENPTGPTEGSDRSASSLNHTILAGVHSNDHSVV", "experiment": "LPA1 functional antagonist assay (LPA-induced calcium flux)", "type": "cell-based", "parameters": "expressed in transfected cells; host or cells: Chinese hamster ovary (CHO) cells", "settings": "CHO cells overexpressing human LPA1; calcium flux induced by 10 nM LPA; read-out: hLPA1 IC50", "method": "The effectiveness of compounds of the present invention as LPA1 inhibitors can be determined in an LPA1 functional antagonist assay as follows:\nChinese hamster ovary cells overexpressing human LPA1 were plated overnight (15,000 cells/well) in poly-D-lysine coated 384-well microplates (Greiner bio-one, Cat #781946) in DMEM/F12 medium (Gibco, Cat #11039). Following overnight culture, cells were loaded with calcium indicator dye (AAT Bioquest Inc, Cat #34601) for 30 minutes at 37° C. The cells were then equilibrated to room temperature for 30 minutes before the assay. Test compounds solubilized in DMSO were transferred to 384 well non-binding surface plates (Corning, Cat #3575) using the Labcyte Echo acoustic dispense and diluted with assay buffer [1×HBSS with calcium/magnesium (Gibco Cat #14025-092), 20 mM HEPES (Gibco Cat #15630-080) and 0.1% fatty acid free BSA (Sigma Cat # A9205)] to a final concentration of 0.5% DMSO. Diluted compounds were added to the cells by FDSS6000 (Hamamatsu) at final concentrations ranging from 0.08 nM to 5 μM. and were then incubated for 20 min at room temperature at which time LPA (Avanti Polar Lipids Cat #857130C) was added at final concentrations of 10 nM to stimulate the cells. […] IC50 values were determined by fitting data to a 4-parameter logistic equation (GraphPad Prism, San Diego Calif.).", "units": {"IC50": "µM"}, "values": [
      {"smiles": "CCC(CC)N(C)C(=O)OCc1c(-c2ccc(O[C@H]3CCC[C@H](C(=O)O)C3)cn2)cnn1C", "note": "[Example 26]", "IC50": 0.03},
      {"smiles": "CC(C)CCN(C)C(=O)OCc1c(-c2ccc(O[C@@H]3CCC[C@@H](C(=O)O)C3)cc2)cnn1C", "note": "[Example 37]", "IC50": 2.04},
      {"smiles": "CCCN(C)C(=O)OCc1c(-c2ccc(O[C@H]3CCC[C@H](C(=O)O)C3)c(C)n2)cnn1C", "note": "[Example 12]", "IC50": 0.054},
      {"smiles": "Cc1nc(-c2cnn(C)c2COC(=O)N(C)CC(C)C)ncc1O[C@H]1CCC[C@H](C(=O)O)C1", "note": "[Example 68]", "IC50": 0.214},
      {"smiles": "Cc1nc(-c2cnn(C)c2COC(=O)N(C)Cc2ccccc2)ccc1O[C@@H]1CCC[C@@H](C(=O)O)C1", "note": "(racemic) [Example 27]", "IC50": 0.024},
      {"smiles": "Cc1nc(-c2cnn(C)c2COC(=O)N(C)Cc2ccccc2)cnc1O[C@H]1CCC[C@H](C(=O)O)C1", "note": "[Example 8]", "IC50": 0.034},
      {"smiles": "CCc1nc(-c2cnn(C)c2COC(=O)N(C)C2CCCC2)ncc1O[C@H]1CCC[C@H](C(=O)O)C1", "note": "[Example 83]", "IC50": 0.06},
      {"smiles": "CCCCN(C)C(=O)OCc1c(-c2ccc(O[C@H]3CCC[C@H](C(=O)O)C3)c(C)c2)cnn1C", "note": "[Example 30]", "IC50": 0.005},
      {"smiles": "CC(C1CCC1)N(C)C(=O)OCc1c(-c2ccc(O[C@H]3CCC[C@H](C(=O)O)C3)cc2)cnn1C", "note": "(some centres unmarked) [Example 55]", "IC50": 0.022},
      {"smiles": "Cc1nc(-c2cnn(C)c2COC(=O)N(C)Cc2ccccc2)ccc1O[C@H]1CCC[C@H](C(=O)O)C1", "note": "[Example 15]", "IC50": 0.01},
      {"smiles": "Cc1nc(-c2cnn(C)c2COC(=O)N(C)C2CCCC2)ncc1O[C@H]1CCC[C@H](C(=O)O)C1", "note": "[Example 71]", "IC50": 0.115},
      {"smiles": "CCC(C)N(C)C(=O)OCc1c(-c2ccc(O[C@H]3CCC[C@H](C(=O)O)C3)cc2)cnn1C", "note": "(some centres unmarked) [Example 53]", "IC50": 0.086},
      {"smiles": "CCCCN(C)C(=O)OCc1c(-c2ncc(O[C@H]3CCC[C@H](C(=O)O)C3)c(CC)n2)cnn1C", "note": "[Example 87]", "IC50": 0.033},
      {"smiles": "Cc1cc(-c2cnn(C)c2COC(=O)N(C)C2CCCC2)ccc1O[C@H]1CCC[C@H](C(=O)O)C1", "note": "[Example 48]", "IC50": 0.008},
      {"smiles": "Cc1nc(-c2cnn(C)c2COC(=O)N(C)C2CCC2)ncc1O[C@H]1CCC[C@H](C(=O)O)C1", "note": "[Example 70]", "IC50": 0.12},
      {"smiles": "Cc1nc(-c2cnn(C)c2COC(=O)N(C)C2CCCC2)ccc1O[C@H]1CCC[C@H](C(=O)O)C1", "note": "[Example 5]", "IC50": 0.03},
      {"smiles": "CC(C)CCN(C)C(=O)OCc1c(-c2ccc(O[C@H]3CCC[C@H](C(=O)O)C3)cc2)cnn1C", "note": "[Example 38]", "IC50": 0.006},
      {"smiles": "Cc1nc(-c2cnn(C)c2COC(=O)N(C)CCC2CC2(F)F)ncc1O[C@H]1CCC[C@H](C(=O)O)C1", "note": "(some centres unmarked) [Example 78]", "IC50": 0.317},
      {"smiles": "CN(C(=O)OCc1c(-c2cnc(O[C@H]3CCC[C@H](C(=O)O)C3)cn2)cnn1C)C1CCCC1", "note": "[Example 56]", "IC50": 0.018},
      {"smiles": "Cc1nc(-c2cnn(C)c2COC(=O)N(C)CCCCCF)ncc1O[C@H]1CCC[C@H](C(=O)O)C1", "note": "[Example 73]", "IC50": 0.142},
      {"smiles": "Cc1cc(-c2cnn(C)c2COC(=O)N(C)C2CCC2)ccc1O[C@H]1CCC[C@H](C(=O)O)C1", "note": "[Example 45]", "IC50": 0.019},
      {"smiles": "CC(C1CC1)N(C)C(=O)OCc1c(-c2ccc(O[C@H]3CCC[C@H](C(=O)O)C3)cc2)cnn1C", "note": "(some centres unmarked) [Example 89]", "IC50": 0.023},
      {"smiles": "CN(CCC1CC1)C(=O)OCc1c(-c2ccc(O[C@@H]3CCC[C@@H](C(=O)O)C3)cn2)cnn1C", "note": "(racemic) [Example 32]", "IC50": 0.054},
      {"smiles": "Cc1nc(-c2cnn(C)c2COC(=O)N(C)C2CCCCC2)ncc1O[C@H]1CCC[C@H](C(=O)O)C1", "note": "[Example 79]", "IC50": 0.093},
      {"smiles": "CN(C(=O)OCc1c(-c2ccc(O[C@H]3CCC[C@H](C(=O)O)C3)cc2)cnn1C)C1CCC1", "note": "[Example 50]", "IC50": 0.07},
      {"smiles": "CC[C@H](C)CN(C)C(=O)OCc1c(-c2ccc(O[C@H]3CCC[C@H](C(=O)O)C3)c(C)n2)cnn1C", "note": "[Example 11]", "IC50": 0.073},
      {"smiles": "CCc1nc(-c2cnn(C)c2COC(=O)N(C)Cc2ccccc2)ncc1O[C@H]1CCC[C@H](C(=O)O)C1", "note": "[Example 82]", "IC50": 0.079},
      {"smiles": "Cc1nc(-c2cnn(C)c2COC(=O)N(C)CC23CC(C2)C3)ncc1O[C@H]1CCC[C@H](C(=O)O)C1", "note": "[Example 77]", "IC50": 0.125},
      {"smiles": "CC(C1CC1)N(C)C(=O)OCc1c(-c2ccc(O[C@H]3CCC[C@H](C(=O)O)C3)cn2)cnn1C", "note": "(some centres unmarked) [Example 61]", "IC50": 0.134},
      {"smiles": "Cc1nc(-c2cnn(C)c2COC(=O)NC2CCCCC2)ncc1O[C@H]1CCC[C@H](C(=O)O)C1", "note": "[Example 81]", "IC50": 0.856},
      {"smiles": "Cc1nc(-c2cnn(C)c2COC(=O)N(C)[C@H](C)C2CC2)cnc1O[C@H]1CCC[C@H](C(=O)O)C1", "note": "[Example 6]", "IC50": 0.094},
      {"smiles": "Cc1nc(-c2cnn(C)c2COC(=O)N(C)C[C@@H]2C[C@H]2C)ncc1O[C@H]1CCC[C@H](C(=O)O)C1", "note": "[Example 91]", "IC50": 0.032},
      {"smiles": "CN(CCC1CC1)C(=O)OCc1c(-c2ccc(O[C@H]3CCC[C@H](C(=O)O)C3)cc2)cnn1C", "note": "[Example 63]", "IC50": 0.046},
      {"smiles": "CCCN(C)C(=O)OCc1c(-c2ncc(O[C@H]3CCC[C@H](C(=O)O)C3)c(CC)n2)cnn1C", "note": "[Example 88]", "IC50": 1.27},
      {"smiles": "CC(C)CCN(C)C(=O)OCc1c(-c2ccc(O[C@H]3CCC[C@H](C(=O)O)C3)cn2)cnn1C", "note": "[Example 33]", "IC50": 0.023},
      {"smiles": "Cc1nc(-c2cnn(C)c2COC(=O)N(C)Cc2ccccc2)ncc1O[C@H]1CCC[C@H](C(=O)O)C1", "note": "[Example 72]", "IC50": 0.06},
      {"smiles": "CCCN(C)C(=O)OCc1c(-c2ncc(O[C@H]3CCC[C@H](C(=O)O)C3)c(C)n2)cnn1C", "note": "[Example 66, (1S,3S)-3-((4-Methyl-2-(1-methyl-5-(((methyl(propyl)carbamoyl)oxy)methyl)-1H-pyrazol-4-yl)pyrimidin-5-yl)oxy)cyclohexane-1-carboxylic Acid]", "IC50": 0.214},
      {"smiles": "CCCCN(C)C(=O)OCc1c(-c2ccc(O[C@H]3CCC[C@H](C(=O)O)C3)cn2)cnn1C", "note": "[Example 35]", "IC50": 0.009},
      {"smiles": "CC(C)CN(C)C(=O)OCc1c(-c2ccc(O[C@H]3CCC[C@H](C(=O)O)C3)cc2)cnn1C", "note": "[Example 49]", "IC50": 0.286},
      {"smiles": "Cc1nc(-c2cnn(C)c2COC(=O)N(C)CCC(C)C)ccc1O[C@H]1CCC[C@H](C(=O)O)C1", "note": "[Example 24]", "IC50": 0.005},
      {"smiles": "CCCC(C)N(C)C(=O)OCc1c(-c2ccc(O[C@H]3CCC[C@H](C(=O)O)C3)cc2)cnn1C", "note": "(some centres unmarked) [Example 54]", "IC50": 0.087},
      {"smiles": "CN(C(=O)OCc1c(-c2ccc(O[C@H]3CCC[C@H](C(=O)O)C3)cn2)cnn1C)C1CCCC1", "note": "[Example 62]", "IC50": 0.031},
      {"smiles": "CCc1nc(-c2cnn(C)c2COC(=O)N(C)CC2CCC2)ncc1O[C@H]1CCC[C@H](C(=O)O)C1", "note": "[Example 84]", "IC50": 0.013},
      {"smiles": "Cc1nc(-c2cnn(C)c2COC(=O)N(C)[C@H](C)C2CC2)ccc1O[C@H]1CCC[C@H](C(=O)O)C1", "note": "[Example 65]", "IC50": 0.048},
      {"smiles": "CN(C(=O)OCc1c(-c2ccc(O[C@@H]3CCC[C@@H](C(=O)O)C3)cc2)cnn1C)C1CCC1", "note": "[Example 42]", "IC50": 0.415},
      {"smiles": "CN(CC1CC1)C(=O)OCc1c(-c2ccc(O[C@@H]3CCC[C@@H](C(=O)O)C3)cc2)cnn1C", "note": "(racemic) [Example 41]", "IC50": 1.76},
      {"smiles": "Cc1nc(-c2cnn(C)c2COC(=O)N(C)CC2CC2)ccc1O[C@H]1CCC[C@H](C(=O)O)C1", "note": "[Example 25]", "IC50": 0.02},
      {"smiles": "CCC(C)N(C)C(=O)OCc1c(-c2ccc(O[C@H]3CCC[C@H](C(=O)O)C3)cn2)cnn1C", "note": "(some centres unmarked) [Example 59]", "IC50": 0.401},
      {"smiles": "Cc1nc(-c2cnn(C)c2COC(=O)N(C)Cc2cccc(F)c2)ccc1O[C@H]1CCC[C@H](C(=O)O)C1", "note": "[Example 16]", "IC50": 0.008},
      {"smiles": "Cc1nc(-c2cnn(C)c2COC(=O)N(C)CC2CCC2)ccc1O[C@H]1CCC[C@H](C(=O)O)C1", "note": "[Example 21]", "IC50": 0.01}
    ]}
  ]
}
